What was measured:
[1] = tested on: S. aureus N315 pRB474-lugIEFGH; experiment: MIC determination, broth microdilution in BM; type: cell-based, Staphylococcus aureus; conditions: for Effect of constitutive LugIEFGH expression on S. aureus susceptibility (in words): S. aureus pRB474-lugIEFGH compared with S. aureus pRB474 (Fig. 4); for MIC S. aureus pRB474-lugIEFGH: Table S2, mean MIC in BM-medium, 37°C, 24 h, 75% growth reduction, at least three independent experiments; for Ratio of MICs, S. aureus pRB474-lugIEFGH versus S. aureus pRB474: Table S2 / Fig. 4b, BM-medium
Protocol: (§1) Further strains used for MIC determination were S. aureus N315 with plasmids pRB474, pRB474-lugI, pRB474-lugEF, pRB474-lugIEF, pRB474-lugGH, pRB474-lugIGH, pRB474-lugEFGH, and pRB474-lugIEFGH.
(§2) If necessary, antibiotic was used at a concentration of 10 μg ml^−1 for chloramphenicol.
(§3) Strains used for MIC determinations were grown overnight in BM, with chloramphenicol for plasmid-containing strains, under continuous shaking at 37°C. Each strain was adjusted to OD600 of 0.0625 in BM. The antimicrobial molecule stock solutions were serially diluted in BM in 96-well microtiter plates. Each well with 100 μl medium, and chloramphenicol, if required, was inoculated with 2 μl of the OD600 of 0.0625 bacterial stock solution. The plates were incubated at 37°C for 24 h under continuous shaking (160 rpm). The OD600 of each well was measured with a microplate reader, and the concentration leading to a 75% growth reduction was calculated and defined as the MIC value.

S. aureus N315 pRB474 = experiment: MIC determination, broth microdilution in BM; type: cell-based, Staphylococcus aureus; conditions: Table S2, mean MIC in BM-medium; empty vector strain; 37°C, 24 h, 75% growth reduction; at least three independent experiments
Protocol: as §1, §2, §3

Molecule | Effect of constitutive LugIEFGH expression on S. aureus susceptibility (in words) [1] | MIC S. aureus pRB474-lugIEFGH [1] [µg/mL] | Ratio of MICs, S. aureus pRB474-lugIEFGH versus S. aureus pRB474 [1] | MIC S. aureus pRB474 (S. aureus N315 pRB474) [µg/mL]
2-Ala-lugdunin | no resistance against the 2-Ala congener was conferred | 39.9 | 0.99 | 40.2
6-Trp-lugdunin | Similar, though even less pronounced | 31.1 | 1.89 | 16.4
N#CC(C#N)=NNc1cccc(Cl)c1 [CCCP, carbonyl cyanide m-chlorophenylhydrazone] | did not affect the susceptibility | 0.64 | 1.02 | 0.63
CO[C@@H]1C[C@@H](C[C@H]2CC[C@H](C)[C@H]([C@@H](C)C(=O)O)O2)O[C@]2(O[C@](C)([C@H]3CC[C@@](C)([C@@H]4O[C@@H]([C@H]5O[C@@](O)(CO)[C@H](C)C[C@@H]5C)C[C@@H]4C)O3)C[C@H]2C)[C@@H]1C [nigericin] | did not affect the susceptibility | 0.25 | 1.00 | 0.25
daptomycin | did not affect the susceptibility | 2.17 | 1 | 2.17
enantio-lugdunin | some degree of resistance | 69.8 | 2.23 | 31.3
gramicidin S | did not affect the susceptibility | 2.74 | 1.00 | 2.75

— PMC7927808 (Antimicrobial Agents and Chemotherapy, 2020)
